Reference: patent US20080009418A1, “Selective Inhibitors” (Alchemia LTD., priority 2004, published 2008)

How the values were obtained:
Human opioid (ORL1) = biological target: T1, Human opioid (ORL1) (Homo sapiens, UniProt P41146); test: Radioligand binding, human opioid ORL1 membranes, FlashPlate, [125I]-Nociceptin; conditions: compound at 10 μM, [125I]-Nociceptin
T1 construct: purchased Perkin Elmer Biosignal
Method in brief: (§1)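 Cloned human receptor membranes were coated onto FlashPlate wells and incubated with radioligand and compound (added from a 0.5 mM DMSO daughter plate) for 1 hour at room temperature in the dark. Scintillation counting gave percent inhibition, with DMSO defining total and reference ligand defining non-specific binding.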

Mouse urotensin (mUR2) = biological target: T2, Mouse urotensin (mUR2) (Mus musculus, UniProt Q8VIH9); test: Radioligand binding, mouse urotensin mUR2 membranes, FlashPlate, [125I]-Urotensin II; conditions: compound at 10 μM; [125I]-Urotensin II
T2 construct: purchased Perkin Elmer Biosignal
T2 sequence (Q8VIH9 1-385): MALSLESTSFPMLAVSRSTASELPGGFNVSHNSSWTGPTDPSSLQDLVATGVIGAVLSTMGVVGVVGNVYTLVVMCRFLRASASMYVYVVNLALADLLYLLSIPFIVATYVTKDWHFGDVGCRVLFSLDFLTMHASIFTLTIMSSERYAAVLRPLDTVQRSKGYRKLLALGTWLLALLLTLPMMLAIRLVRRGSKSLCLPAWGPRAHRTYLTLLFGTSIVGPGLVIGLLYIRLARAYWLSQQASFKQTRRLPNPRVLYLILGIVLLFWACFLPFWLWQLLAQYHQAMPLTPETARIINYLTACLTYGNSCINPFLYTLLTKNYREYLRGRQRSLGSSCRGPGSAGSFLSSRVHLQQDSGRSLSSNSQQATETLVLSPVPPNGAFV
Method in brief: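 Cloned mouse urotensin (mUR2) receptor membranes from Perkin Elmer Biosignal were immobilized in FlashPlate microplates using a proprietary coating. Each well got 19.5 μl buffer, then 0.5 μl of DMSO, reference ligand, or compound. Adding 5 μl of [125I]-Urotensin II, diluted to 5× final concentration in binding buffer, started binding. Plates were sealed with TopSeal-A and incubated 1 hour at room temperature in the dark. Wells were counted for 30 seconds each on a TopCount after a 60-second delay, and percentage inhibition was calculated.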

Human Melanocortin (MC4) = biological target: T3, Human Melanocortin (MC4) (Homo sapiens, UniProt P32245); test: Radioligand binding, human melanocortin MC4 membranes, FlashPlate, [125I]-NDP-αMSH; conditions: compound at 10 μM, [125I]-NDP-αMSH
T3 construct: purchased Perkin Elmer Biosignal
T3 sequence (P32245 whole entry): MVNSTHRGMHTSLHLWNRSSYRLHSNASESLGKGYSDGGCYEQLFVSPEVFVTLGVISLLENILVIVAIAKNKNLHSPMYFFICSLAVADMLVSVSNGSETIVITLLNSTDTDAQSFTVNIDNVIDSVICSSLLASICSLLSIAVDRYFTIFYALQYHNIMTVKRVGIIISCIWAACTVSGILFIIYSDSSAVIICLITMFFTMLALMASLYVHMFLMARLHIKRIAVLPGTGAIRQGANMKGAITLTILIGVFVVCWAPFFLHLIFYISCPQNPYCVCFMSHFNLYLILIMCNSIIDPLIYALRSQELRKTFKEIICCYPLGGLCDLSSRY
Method in brief: as §1

Human κ-Opioid (KOP) = biological target: T4, Human κ-Opioid (KOP) (Homo sapiens, UniProt P41145); test: Radioligand binding, human κ-opioid (KOP) membranes, filtration, [3H]-Diprenorphine; conditions: compound at 10 μM, [3H]-Diprenorphine
T4 construct: purchased Perkin Elmer Biosignal
T4 sequence (P41145 whole entry): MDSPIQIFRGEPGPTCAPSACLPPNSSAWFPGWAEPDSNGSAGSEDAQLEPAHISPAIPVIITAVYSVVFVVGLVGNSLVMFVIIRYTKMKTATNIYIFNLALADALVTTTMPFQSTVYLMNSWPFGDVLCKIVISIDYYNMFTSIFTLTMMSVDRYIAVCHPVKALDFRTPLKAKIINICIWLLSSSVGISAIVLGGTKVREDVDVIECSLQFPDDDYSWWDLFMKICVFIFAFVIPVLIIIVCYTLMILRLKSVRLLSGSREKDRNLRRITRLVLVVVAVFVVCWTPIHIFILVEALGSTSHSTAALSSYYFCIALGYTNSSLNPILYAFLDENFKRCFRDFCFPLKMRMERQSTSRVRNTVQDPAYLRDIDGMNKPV
Method in brief: (§2)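 Percent inhibition of radioligand binding measured on recombinant human membranes: NK1 with [125I]-Substance P, KOP with [3H]-Diprenorphine. Incubation 1 h at room temperature, then harvest onto 0.3% PEI-soaked filters, cold Tris-HCl pH 7.4 washes and scintillation counting; non-specific binding from reference ligand wells.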

Human μ-opioid (MOP) = biological target: T5, Human μ-opioid (MOP) (Homo sapiens, UniProt P35372); test: Radioligand binding, human μ-opioid (MOP) membranes, FlashPlate, [3H]-Naloxone; conditions: compound at 10 μM, [3H]-Naloxone
T5 construct: purchased Perkin Elmer Biosignal
T5 sequence (P35372 whole entry): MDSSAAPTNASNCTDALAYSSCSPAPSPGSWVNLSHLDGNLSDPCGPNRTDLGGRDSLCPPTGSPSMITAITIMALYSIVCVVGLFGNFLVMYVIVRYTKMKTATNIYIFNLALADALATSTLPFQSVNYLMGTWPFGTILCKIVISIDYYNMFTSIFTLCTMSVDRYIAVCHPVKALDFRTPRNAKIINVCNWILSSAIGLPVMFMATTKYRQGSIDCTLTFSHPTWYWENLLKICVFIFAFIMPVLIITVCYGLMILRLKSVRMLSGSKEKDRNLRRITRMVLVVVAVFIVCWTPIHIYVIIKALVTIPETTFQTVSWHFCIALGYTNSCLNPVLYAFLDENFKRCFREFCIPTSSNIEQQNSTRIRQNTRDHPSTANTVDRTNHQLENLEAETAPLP
Method in brief: as §1

Human δ-opioid (DOP) = biological target: T6, Human δ-opioid (DOP) (Homo sapiens, UniProt P41143); test: Radioligand binding, human δ-opioid (DOP) membranes, FlashPlate, [3H]-Bremazocine; conditions: compound at 10 μM; [3H]-Bremazocine
T6 construct: purchased Perkin Elmer Biosignal
T6 sequence (P41143 whole entry): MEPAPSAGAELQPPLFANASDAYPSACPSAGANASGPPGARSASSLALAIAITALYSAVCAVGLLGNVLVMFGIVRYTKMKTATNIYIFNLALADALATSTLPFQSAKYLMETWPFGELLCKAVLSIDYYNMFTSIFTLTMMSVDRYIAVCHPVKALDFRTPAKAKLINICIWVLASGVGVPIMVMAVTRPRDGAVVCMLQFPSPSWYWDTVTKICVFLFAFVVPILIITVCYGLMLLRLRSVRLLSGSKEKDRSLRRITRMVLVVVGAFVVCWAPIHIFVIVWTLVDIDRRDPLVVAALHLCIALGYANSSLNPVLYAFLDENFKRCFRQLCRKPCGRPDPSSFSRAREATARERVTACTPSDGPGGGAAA
Method in brief: as §1

Human melanocortin (MC5) = biological target: T7, Human melanocortin (MC5) (Homo sapiens, UniProt P33032); test: Radioligand binding, human melanocortin MC5 membranes, FlashPlate, [125I]-NDP-αMSH; conditions: compound at 10 μM, [125I]-NDP-αMSH
T7 construct: purchased Perkin Elmer Biosignal
T7 sequence (P33032 whole entry): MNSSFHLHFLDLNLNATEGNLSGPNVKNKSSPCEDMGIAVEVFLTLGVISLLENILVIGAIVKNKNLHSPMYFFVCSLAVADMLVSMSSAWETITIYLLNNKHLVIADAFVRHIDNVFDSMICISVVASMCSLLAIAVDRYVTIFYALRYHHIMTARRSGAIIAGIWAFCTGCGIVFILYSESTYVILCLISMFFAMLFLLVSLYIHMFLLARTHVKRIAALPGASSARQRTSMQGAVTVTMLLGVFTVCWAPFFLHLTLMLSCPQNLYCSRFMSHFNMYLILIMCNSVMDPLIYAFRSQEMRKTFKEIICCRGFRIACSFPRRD
Method in brief: as §1

Human Melanocortin (MC3) = biological target: T8, Human Melanocortin (MC3) (Homo sapiens, UniProt P41968); test: Radioligand binding, human melanocortin MC3 membranes, FlashPlate, [125I]-NDP-αMSH; conditions: compound at 10 μM, [125I]-NDP-αMSH
T8 construct: purchased Perkin Elmer Biosignal
T8 sequence (P41968 whole entry): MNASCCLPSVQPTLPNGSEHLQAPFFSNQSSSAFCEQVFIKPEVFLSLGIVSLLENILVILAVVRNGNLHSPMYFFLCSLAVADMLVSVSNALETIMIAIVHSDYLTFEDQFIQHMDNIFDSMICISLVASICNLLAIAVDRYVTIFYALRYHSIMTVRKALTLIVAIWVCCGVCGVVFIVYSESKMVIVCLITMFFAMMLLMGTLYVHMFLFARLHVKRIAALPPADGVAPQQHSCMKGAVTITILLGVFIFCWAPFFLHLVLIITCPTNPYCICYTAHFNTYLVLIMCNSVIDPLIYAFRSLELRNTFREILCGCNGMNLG
Method in brief: as §1

[1] = biological target: T9, Human neuropeptide Y (NPY-Y1) (Homo sapiens, UniProt P25929); test: Radioligand binding, human neuropeptide Y NPY-Y1 membranes, FlashPlate, [125I]-PYY; conditions: compound at 10 μM; [125I]-PYY
T9 construct: purchased Perkin Elmer Biosignal
T9 sequence (P25929 1-384): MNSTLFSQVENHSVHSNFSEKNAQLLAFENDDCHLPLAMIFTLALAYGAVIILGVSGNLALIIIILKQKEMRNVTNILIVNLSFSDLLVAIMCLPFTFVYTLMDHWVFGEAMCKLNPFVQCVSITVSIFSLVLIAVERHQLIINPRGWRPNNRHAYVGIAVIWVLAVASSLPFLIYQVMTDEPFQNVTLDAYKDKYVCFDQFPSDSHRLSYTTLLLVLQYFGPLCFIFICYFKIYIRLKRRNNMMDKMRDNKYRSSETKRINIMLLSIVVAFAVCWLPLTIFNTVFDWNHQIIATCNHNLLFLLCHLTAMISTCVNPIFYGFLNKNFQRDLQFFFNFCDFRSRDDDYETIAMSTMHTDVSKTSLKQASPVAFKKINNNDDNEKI
Method in brief: as §1

Human neurokinin (NK1) = biological target: T10, Human neurokinin (NK1) (Homo sapiens, UniProt P25103); test: Radioligand binding, human neurokinin NK1 membranes, filtration, [125I]-Substance P; conditions: compound at 10 μM; [125I]-Substance P
T10 construct: purchased Perkin Elmer Biosignal
T10 sequence (P25103 whole entry): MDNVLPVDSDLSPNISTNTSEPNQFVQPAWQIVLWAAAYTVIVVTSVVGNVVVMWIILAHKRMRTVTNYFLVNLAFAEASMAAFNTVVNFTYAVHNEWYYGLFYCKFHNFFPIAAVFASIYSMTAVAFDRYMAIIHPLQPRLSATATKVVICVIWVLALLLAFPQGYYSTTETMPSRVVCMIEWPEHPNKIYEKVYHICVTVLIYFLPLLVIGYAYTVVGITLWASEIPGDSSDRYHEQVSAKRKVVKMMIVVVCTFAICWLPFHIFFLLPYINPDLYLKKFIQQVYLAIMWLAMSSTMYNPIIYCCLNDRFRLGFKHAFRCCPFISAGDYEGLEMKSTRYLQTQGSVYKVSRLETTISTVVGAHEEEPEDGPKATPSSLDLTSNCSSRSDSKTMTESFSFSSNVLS
Method in brief: as §2

[2] = biological target: T11, Human melanin-concentrating hormone (MCH1) (Homo sapiens, UniProt Q99705); test: Radioligand binding, human melanin-concentrating hormone MCH1 membranes, FlashPlate, [125I]-S36057; conditions: compound at 10 μM, [125I]-S36057
T11 construct: purchased Perkin Elmer Biosignal
T11 sequence (Q99705 whole entry): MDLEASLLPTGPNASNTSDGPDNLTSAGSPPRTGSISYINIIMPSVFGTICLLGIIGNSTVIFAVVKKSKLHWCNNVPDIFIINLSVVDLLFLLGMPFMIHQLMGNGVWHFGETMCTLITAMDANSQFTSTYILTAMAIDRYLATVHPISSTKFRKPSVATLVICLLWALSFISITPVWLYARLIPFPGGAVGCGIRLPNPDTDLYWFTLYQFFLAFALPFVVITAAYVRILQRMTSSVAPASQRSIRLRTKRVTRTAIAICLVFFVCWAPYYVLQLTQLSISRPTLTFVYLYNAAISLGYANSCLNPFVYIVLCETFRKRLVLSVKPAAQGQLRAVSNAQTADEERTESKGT
Method in brief: as §1

T1 sequence (P41146 whole entry): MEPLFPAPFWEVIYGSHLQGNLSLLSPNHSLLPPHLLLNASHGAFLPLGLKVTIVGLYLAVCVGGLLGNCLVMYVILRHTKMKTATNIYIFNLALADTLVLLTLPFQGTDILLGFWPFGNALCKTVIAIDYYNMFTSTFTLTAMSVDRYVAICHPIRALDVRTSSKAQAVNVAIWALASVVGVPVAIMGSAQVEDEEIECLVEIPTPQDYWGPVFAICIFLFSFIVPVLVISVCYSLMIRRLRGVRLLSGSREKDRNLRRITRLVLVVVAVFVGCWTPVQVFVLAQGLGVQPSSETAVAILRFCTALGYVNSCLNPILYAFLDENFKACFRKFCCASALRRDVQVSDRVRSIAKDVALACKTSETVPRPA

| Structure (SMILES) | A10: inhibition of radioligand binding, human opioid (ORL1) (Human opioid (ORL1); 10 µM) | A11: inhibition of radioligand binding, mouse urotensin (mUR2) (Mouse urotensin (mUR2)) | A4: inhibition of radioligand binding, human melanocortin (MC4) (Human Melanocortin (MC4); 10 µM) | A2: inhibition of radioligand binding, human κ-opioid (KOP) (Human κ-Opioid (KOP)) | A7: inhibition of radioligand binding, human μ-opioid (MOP) (Human μ-opioid (MOP)) | A1: inhibition of radioligand binding, human δ-opioid (DOP) (Human δ-opioid (DOP)) | A5: inhibition of radioligand binding, human melanocortin (MC5) (Human melanocortin (MC5)) | A3: inhibition of radioligand binding, human melanocortin (MC3) (Human Melanocortin (MC3); 10 µM) | A9: inhibition of radioligand binding, human neuropeptide Y (NPY-Y1) [1] | A8: inhibition of radioligand binding, human neurokinin (NK1) (Human neurokinin (NK1)) | A6: inhibition of radioligand binding, human melanin-concentrating hormone (MCH1) ([2]; 10 µM) | A10: inhibition of radioligand binding, human opioid (ORL1) (Human opioid (ORL1)) | A7: inhibition of radioligand binding, human μ-opioid (MOP) (Human μ-opioid (MOP); 10 µM) | A5: inhibition of radioligand binding, human melanocortin (MC5) (Human melanocortin (MC5); 10 µM) | A3: inhibition of radioligand binding, human melanocortin (MC3) (Human Melanocortin (MC3)) | A4: inhibition of radioligand binding, human melanocortin (MC4) (Human Melanocortin (MC4)) | A2: inhibition of radioligand binding, human κ-opioid (KOP) (Human κ-Opioid (KOP); 10 µM) | A6: inhibition of radioligand binding, human melanin-concentrating hormone (MCH1) [2] |
| --- | --- | --- | --- | --- | --- | --- | --- | --- | --- | --- | --- | --- | --- | --- | --- | --- | --- | --- |
| NCCC(=O)NC1C(OCc2ccc(Cl)cc2)OC(COCc2ccc3ccccc3c2)C(O)C1OCc1ccc2ccccc2c1 (single isomer, unassigned) [compound 477] | + (“+” indicates greater than 50% inhibition at 10 μM) | − (“−” indicates less than 50% inhibition at 10 μM) | − (“−” indicates less than 50% inhibition at 10 μM) | − (“−” indicates less than 50% inhibition at 10 μM) | − (“−” indicates less than 50% inhibition at 10 μM) | − (“−” indicates less than 50% inhibition at 10 μM) | + (“+” indicates greater than 50% inhibition at 10 μM) | − (“−” indicates less than 50% inhibition at 10 μM) | − (“−” indicates less than 50% inhibition at 10 μM) | + (“+” indicates greater than 50% inhibition at 10 μM) | − (“−” indicates less than 50% inhibition at 10 μM) |  |  |  |  |  |  |  |
| NCCC(=O)NC1C(OCc2ccc(Cl)cc2)OC(COCc2ccc3ccccc3c2)C(O)C1OCc1ccc2ccccc2c1 (single isomer, unassigned) [compound 478] | − (“−” indicates less than 50% inhibition at 10 μM) | − (“−” indicates less than 50% inhibition at 10 μM) | + (“+” indicates greater than 50% inhibition at 10 μM) | − (“−” indicates less than 50% inhibition at 10 μM) | − (“−” indicates less than 50% inhibition at 10 μM) | − (“−” indicates less than 50% inhibition at 10 μM) | + (“+” indicates greater than 50% inhibition at 10 μM) | + (“+” indicates greater than 50% inhibition at 10 μM) | − (“−” indicates less than 50% inhibition at 10 μM) | + (“+” indicates greater than 50% inhibition at 10 μM) | + (“+” indicates greater than 50% inhibition at 10 μM) |  |  |  |  |  |  |  |
| NCCC(=O)NC1C(OCc2ccc(Cl)cc2)OC(COCc2ccccc2)C(O)C1OCc1ccc2ccccc2c1 (single isomer, unassigned) [compound 479] |  | − (“−” indicates less than 50% inhibition at 10 μM) | − (“−” indicates less than 50% inhibition at 10 μM) | − (“−” indicates less than 50% inhibition at 10 μM) |  | − (“−” indicates less than 50% inhibition at 10 μM) |  |  | − (“−” indicates less than 50% inhibition at 10 μM) | + (“+” indicates greater than 50% inhibition at 10 μM) | − (“−” indicates less than 50% inhibition at 10 μM) | − (“−” indicates less than 50% inhibition at 10 μM) | − (“−” indicates less than 50% inhibition at 10 μM) | − (“−” indicates less than 50% inhibition at 10 μM) | − (“−” indicates less than 50% inhibition at 10 μM) |  |  |  |
| NCCC(=O)NC1C(OCc2ccc(Cl)cc2)OC(COCc2ccccc2)C(O)C1OCc1ccc2ccccc2c1 (single isomer, unassigned) [compound 480] |  | − (“−” indicates less than 50% inhibition at 10 μM) | + (“+” indicates greater than 50% inhibition at 10 μM) | − (“−” indicates less than 50% inhibition at 10 μM) |  | − (“−” indicates less than 50% inhibition at 10 μM) |  |  | − (“−” indicates less than 50% inhibition at 10 μM) | + (“+” indicates greater than 50% inhibition at 10 μM) | + (“+” indicates greater than 50% inhibition at 10 μM) | − (“−” indicates less than 50% inhibition at 10 μM) | + (“+” indicates greater than 50% inhibition at 10 μM) | + (“+” indicates greater than 50% inhibition at 10 μM) | − (“−” indicates less than 50% inhibition at 10 μM) |  |  |  |
| NCCC(=O)NC1C(OCc2ccc(Cl)cc2)OC(COCc2ccc(Cl)cc2)C(O)C1OCc1ccc2ccccc2c1 (single isomer, unassigned) [compound 481] |  | − (“−” indicates less than 50% inhibition at 10 μM) |  |  | − (“−” indicates less than 50% inhibition at 10 μM) | − (“−” indicates less than 50% inhibition at 10 μM) | + (“+” indicates greater than 50% inhibition at 10 μM) |  | − (“−” indicates less than 50% inhibition at 10 μM) | + (“+” indicates greater than 50% inhibition at 10 μM) |  | + (“+” indicates greater than 50% inhibition at 10 μM) |  |  | + (“+” indicates greater than 50% inhibition at 10 μM) | + (“+” indicates greater than 50% inhibition at 10 μM) | + (“+” indicates greater than 50% inhibition at 10 μM) | + (“+” indicates greater than 50% inhibition at 10 μM) |
